Source: ChEMBL document CHEMBL1949518, “Synthesis and biological evaluation of some new 2-pyrazolines bearing benzene sulfonamide moiety as potential anti-inflammatory and anti-cancer agents” (Eur J Med Chem, 2011)

Legend:
Type in all cases: functional
[1] = system: Rattus norvegicus; assay: Antiinflammatory activity in Wistar rat assessed as inhibition of carrageenan-induced paw edema at 20 mg/kg, po administered 30 mins before carrageenan challenge measured after 3 hrs
[2] = system: HL-60(TB); assay: Antiproliferative activity against human HL-60(TB) cells assessed as cell growth at 10^-5 M after 48 hrs by SRB assay relative to control; conditions: HL-60, 48 h, read-out: Activity
[3] = system: MOLT-4; assay: Antiproliferative activity against human MOLT4 cells assessed as cell growth at 10^-5 M after 48 hrs by SRB assay relative to control; conditions: MOLT-4, 48 h, read-out: Activity
[4] = system: A549; assay: Antiproliferative activity against human A549 cells assessed as cell growth at 10^-5 M after 48 hrs by SRB assay relative to control; conditions: A549, 48 h, read-out: Activity
[5] = system: NCI-H522; assay: Antiproliferative activity against human NCI-H522 cells assessed as cell growth at 10^-5 M after 48 hrs by SRB assay relative to control; conditions: NCI-H522, 48 h, read-out: Activity
[6] = system: HCC 2998; assay: Antiproliferative activity against human HCC2998 cells assessed as cell growth at 10^-5 M after 48 hrs by SRB assay relative to control; conditions: HCC 2998, 48 h, read-out: Activity
[7] = system: HCT-15; assay: Antiproliferative activity against human HCT15 cells assessed as cell growth at 10^-5 M after 48 hrs by SRB assay relative to control; conditions: HCT-15, 48 h, read-out: Activity
[8] = system: HT-29; assay: Antiproliferative activity against human HT-29 cells assessed as cell growth at 10^-5 M after 48 hrs by SRB assay relative to control; conditions: HT-29, 48 h, read-out: Activity
[9] = system: SF-268; assay: Antiproliferative activity against human SF268 cells assessed as cell growth at 10^-5 M after 48 hrs by SRB assay relative to control; conditions: SF-268, 48 h, read-out: Activity
[10] = system: SNB-75; assay: Antiproliferative activity against human SNB75 cells assessed as cell growth at 10^-5 M after 48 hrs by SRB assay relative to control; conditions: SNB-75, 48 h, read-out: Activity
[11] = system: U-251; assay: Antiproliferative activity against human U251 cells assessed as cell growth at 10^-5 M after 48 hrs by SRB assay relative to control; conditions: U-251, 48 h, read-out: Activity
[12] = system: IGROV-1; assay: Antiproliferative activity against human IGROV1 cells assessed as cell growth at 10^-5 M after 48 hrs by SRB assay relative to control; conditions: IGROV-1, 48 h, read-out: Activity
[13] = system: OVCAR-3; assay: Antiproliferative activity against human OVCAR3 cells assessed as cell growth at 10^-5 M after 48 hrs by SRB assay relative to control; conditions: OVCAR-3, 48 h, read-out: Activity
[14] = system: OVCAR-4; assay: Antiproliferative activity against human OVCAR4 cells assessed as cell growth at 10^-5 M after 48 hrs by SRB assay relative to control; conditions: OVCAR-4, 48 h, read-out: Activity
[15] = system: OVCAR-5; assay: Antiproliferative activity against human OVCAR5 cells assessed as cell growth at 10^-5 M after 48 hrs by SRB assay relative to control; conditions: OVCAR-5, 48 h, read-out: Activity
[16] = system: NCI/ADR-RES; assay: Antiproliferative activity against human NCI/ADR-RES cells assessed as cell growth at 10^-5 M after 48 hrs by SRB assay relative to control; conditions: read-out: Activity
[17] = system: 786-0; assay: Antiproliferative activity against human 786-0 cells assessed as cell growth at 10^-5 M after 48 hrs by SRB assay relative to control; conditions: 786-0, 48 h, read-out: Activity
[18] = system: A498; assay: Antiproliferative activity against human A498 cells assessed as cell growth at 10^-5 M after 48 hrs by SRB assay relative to control; conditions: A498, 48 h, read-out: Activity
[19] = system: ACHN; assay: Antiproliferative activity against human ACHN cells assessed as cell growth at 10^-5 M after 48 hrs by SRB assay relative to control; conditions: read-out: Activity
[20] = system: TK-10; assay: Antiproliferative activity against human TK10 cells assessed as cell growth at 10^-5 M after 48 hrs by SRB assay relative to control; conditions: TK-10, 48 h, read-out: Activity
[21] = system: PC-3; assay: Antiproliferative activity against human PC3 cells assessed as cell growth at 10^-5 M after 48 hrs by SRB assay relative to control; conditions: PC-3, 48 h, read-out: Activity
[22] = system: MCF7; assay: Antiproliferative activity against human MCF7 cells assessed as cell growth at 10^-5 M after 48 hrs by SRB assay relative to control; conditions: MCF7, 48 h, read-out: Activity
[23] = system: MDA-MB-231; assay: Antiproliferative activity against human MDA-MB-231 cells assessed as cell growth at 10^-5 M after 48 hrs by SRB assay relative to control; conditions: MDA-MB-231, 48 h, read-out: Activity
[24] = Antiproliferative activity against human Hs 578T cells assessed as cell growth at 10^-5 M after 48 hrs by SRB assay relative to control; conditions: read-out: Activity
[25] = system: M14; assay: Antiproliferative activity against human M14 cells assessed as cell growth at 10^-5 M after 48 hrs by SRB assay relative to control; conditions: M14, 48 h, read-out: Activity
[26] = system: UACC-62; assay: Antiproliferative activity against human UACC62 cells assessed as cell growth at 10^-5 M after 48 hrs by SRB assay relative to control; conditions: UACC-62, 48 h, read-out: Activity
[27] = system: SK-MEL-5; assay: Anticancer activity against human SK-MEL-5 cells after 48 hrs by SRB assay; conditions: SK-MEL-5, 48 h
[28] = system: CCRF-CEM; assay: Anticancer activity against human CCRF-CEM cells after 48 hrs by SRB assay; conditions: for CC50: read-out: LC50 (the source's name)
[29] = system: HCC 2998; assay: Anticancer activity against human HCC2998 cells after 48 hrs by SRB assay; conditions: HCC 2998, 48 h
[30] = system: HT-29; assay: Anticancer activity against human HT-29 cells after 48 hrs by SRB assay; conditions: HT-29, 48 h
[31] = system: OVCAR-4; assay: Anticancer activity against human OVCAR4 cells after 48 hrs by SRB assay; conditions: OVCAR-4, 48 h
[32] = system: PC-3; assay: Anticancer activity against human PC3 cells after 48 hrs by SRB assay; conditions: PC-3, 48 h; for CC50: read-out: LC50 (the source's name)
[33] = system: MDA-MB-231; assay: Anticancer activity against human MDA-MB-231 cells after 48 hrs by SRB assay; conditions: MDA-MB-231, 48 h; for CC50: read-out: LC50 (the source's name)
[34] = Anticancer activity against human Hs 578T cells after 48 hrs by SRB assay; conditions: for CC50: read-out: LC50 (the source's name)

## COc1ccc(C2CC(c3c(O)cc(C)c(Cl)c3C)=NN2c2ccc(S(N)(=O)=O)cc2)cc1 (configuration not stated)
[1]
  inhibition in vivo at 20 mg/kg: 46.7%
[2]
  growth at 10 µM: 69.1%
[3]
  growth at 10 µM: 36.5%
[4]
  growth at 10 µM: 56%
[5]
  growth at 10 µM: 71.5%
[6]
  growth at 10 µM: 97.6%
[7]
  growth at 10 µM: 92.2%
[8]
  growth at 10 µM: 109%
[9]
  growth at 10 µM: 76.1%
[10]
  growth at 10 µM: 85.1%
[11]
  growth at 10 µM: 91.3%
[12]
  growth at 10 µM: 71.9%
[13]
  growth at 10 µM: 102%
[14]
  growth at 10 µM: 86.4%
[15]
  growth at 10 µM: 86.6%
[16]
  growth at 10 µM: 101%
[17]
  growth at 10 µM: 92.5%
[18]
  growth at 10 µM: 93.2%
[19]
  growth at 10 µM: 96.7%
[20]
  growth at 10 µM: 104%
[21]
  growth at 10 µM: 56.2%
[22]
  growth at 10 µM: 71.6%
[23]
  growth at 10 µM: 71%
[24]
  growth at 10 µM: 99%
[25]
  growth at 10 µM: 77.8%
[26]
  growth at 10 µM: 74%

## Cc1cc(O)c(C2=NN(c3ccc(S(N)(=O)=O)cc3)C(c3ccc(Cl)cc3)C2)c(C)c1Cl (configuration not stated)
[27]
  GI50: 14.5 µM
  TGI: 27.8 µM
[1]
  inhibition in vivo at 20 mg/kg: 80%
[2]
  growth at 10 µM: 24.1%
[3]
  growth at 10 µM: 27.3%
[4]
  growth at 10 µM: 40.8%
[5]
  growth at 10 µM: 39.8%
[6]
  growth at 10 µM: 94.1%
[7]
  growth at 10 µM: 80.5%
[8]
  growth at 10 µM: 52.7%
[9]
  growth at 10 µM: 72.1%
[10]
  growth at 10 µM: 78.7%
[11]
  growth at 10 µM: 78.3%
[12]
  growth at 10 µM: 34.1%
[13]
  growth at 10 µM: 80.3%
[14]
  growth at 10 µM: 58.8%
[15]
  growth at 10 µM: 96.8%
[16]
  growth at 10 µM: 85.7%
[17]
  growth at 10 µM: 95.6%
[18]
  growth at 10 µM: 74.3%
[19]
  growth at 10 µM: 88.6%
[20]
  growth at 10 µM: 113%
[21]
  growth at 10 µM: 13.6%
[22]
  growth at 10 µM: 37.2%
[23]
  growth at 10 µM: 103%
[24]
  growth at 10 µM: 82.5%
[25]
  growth at 10 µM: 89.3%
[26]
  growth at 10 µM: 64.8%
[28]
  GI50: 15.1 µM
  TGI: 43.5 µM
  CC50: 100 µM
[29]
  GI50: 14.8 µM
  TGI: 30.9 µM
[30]
  GI50: 10.9 µM
  TGI: 25.8 µM
[31]
  GI50: 13.3 µM
  TGI: 27.6 µM
[32]
  GI50: 9.21 µM
  TGI: 23.9 µM
  CC50: 58.9 µM
[33]
  GI50: 11 µM
  TGI: 27.2 µM
  CC50: 67.5 µM
[34]
  GI50: 23 µM
  TGI: 62.3 µM
  CC50: 100 µM

## Cc1cc(O)c(C2=NN(c3ccc(S(N)(=O)=O)cc3)C(c3ccc(N(C)C)cc3)C2)c(C)c1Cl (configuration not stated)
[27]
  GI50: 9.59 µM
  LC50 (concentration killing 50% of cells): 46.2 µM
  TGI: 21.4 µM
[1]
  inhibition in vivo at 20 mg/kg: 33%
[2]
  growth at 10 µM: 18.4%
[3]
  growth at 10 µM: 14.3%
[4]
  growth at 10 µM: 33.2%
[5]
  growth at 10 µM: 57.7%
[6]
  growth at 10 µM: 66.5%
[7]
  growth at 10 µM: 65.2%
[8]
  growth at 10 µM: 55.1%
[9]
  growth at 10 µM: 61.7%
[10]
  growth at 10 µM: 67.4%
[11]
  growth at 10 µM: 70%
[12]
  growth at 10 µM: 20.6%
[13]
  growth at 10 µM: 68%
[14]
  growth at 10 µM: 58.9%
[15]
  growth at 10 µM: 95.2%
[16]
  growth at 10 µM: 80.3%
[17]
  growth at 10 µM: 43.3%
[18]
  growth at 10 µM: 87.2%
[19]
  growth at 10 µM: 58.7%
[20]
  growth at 10 µM: 80%
[21]
  growth at 10 µM: 12.1%
[22]
  growth at 10 µM: 13%
[23]
  growth at 10 µM: 59%
[24]
  growth at 10 µM: 71.2%
[25]
  growth at 10 µM: 39.1%
[26]
  growth at 10 µM: 53%
[28]
  GI50: 3.64 µM
  TGI: 13.5 µM
  CC50: 44.4 µM
[29]
  GI50: 6.48 µM
  LC50: 43.8 µM
  TGI: 19.1 µM
[30]
  GI50: 3.3 µM
  LC50: 37.6 µM
  TGI: 11 µM
[31]
  GI50: 7.68 µM
  LC50: 49.7 µM
  TGI: 21.2 µM
[32]
  GI50: 4.44 µM
  TGI: 16.8 µM
  CC50: 41 µM
[33]
  GI50: 2.34 µM
  TGI: 11.8 µM
  CC50: 38.7 µM
[34]
  GI50: 3.45 µM
  TGI: 20 µM
  CC50: 91.5 µM
